Experimental data taken from patent US20100279942A1, “METHODS FOR TREATING MOTOR NEURON DISEASE” (priority 2004, published 2010).
Ends that are not written are not given here.

How the values were obtained:
[1] = test system: neuronal cell death caused by amyloid β; conditions: cited from earlier work
[2] = test system: NSC34 cells transformed with SOD1 mutant (A4T-SOD1, G85R-SOD1, G93R-SOD1) genes; test: Neuronal cell death test, Trypan blue exclusion assay, NSC34 cells transformed with SOD1 mutant genes; assay type: cell-based, mouse
Method: NSC34 cell, the hybrid cell of primary cultured, motor neuron-system embryonic mouse spinal cord cell with mouse neuroblastoma NTG18 cell, was cultured in […] medium containing 10% FBS and antibiotics (Cashman N R, et al., 1992, Dev Dyn 194: 209-221; and Durham H D, et al, 1993, Neurotoxicology 14: 387-395).
The NSC34 cells (7×10^4 cells/well, 6-well plate, 12 to 16-hour culture in DMEM (10% FBS) medium) were transformed with wild-type or SOD1 mutant (A4T, G85R, and G93R) genes by lipofection (0.5 μg of each SOD1 gene; 1 μl of LipofectAMINE; 2 μl of PLUS Reagent) under serum-free conditions for 3 hours and cultured for 21 hours in DMEM (10% FBS) and after 48 hours in DMED supplemented with N2 supplement (Invitrogen). After 72 hours of the transformation, cell mortality was measured by Trypan blue exclusion assay in the same way as above.
F11 or NSC34 cells were transformed with pEF-BOS, A4T-SOD1, G85R-SOD1, or G93R-SOD1 cDNA in the presence of increasing concentrations (10 aM, 1 fM, 100 fM, 10 pM, 1 nM, and 100 nM) of ADNF. After 72 hours, cell mortality was measured by Trypan blue exclusion assay.

SALLRSIPA [ADNF, short peptide consisting of nine amino acid residues]
neuroprotective action at high concentration ([1]; ADNF at or above 10 nM, Brenneman et al.): lose its neuroprotective action | inhibitory activity against cell death caused by amyloid β toxicity- or APP mutant gene-induced disorders ([1]; ADNF at or above nM levels, Hashimoto et al. 2001): reduced inhibitory activity | inhibition of neuronal cell death caused by SOD1 mutant genes ([2]; 100 fM ADNF, three SOD1 mutant genes, 72 hours): can completely inhibit neuronal cell death | inhibitory effect on neuronal cell death at high concentration ([2]; ADNF at concentrations equal to or above 10 nM): not decreased
